pIC50: −log10 of the molar value. Where two headings read alike, the source gives them in different places.
Tests used:
hαvβ8 = target: T1, hαvβ8 (Homo sapiens, UniProt P06756+P26012); test: Human AlphaLISA integrin-ligand blocking assay (LAP); type: biochemical
T1 construct: The full extracellular domains for all α and β integrin subunits; (GGGS)3 linker (C); acidic coiled-coil with cysteine (C); GG-Avitag (C); hexa-histidine tag (C); basic coiled-coil with cysteine (C); made in house; host or cells: Expi293 cells
T1 sequence (P06756 31-992 limits assumed): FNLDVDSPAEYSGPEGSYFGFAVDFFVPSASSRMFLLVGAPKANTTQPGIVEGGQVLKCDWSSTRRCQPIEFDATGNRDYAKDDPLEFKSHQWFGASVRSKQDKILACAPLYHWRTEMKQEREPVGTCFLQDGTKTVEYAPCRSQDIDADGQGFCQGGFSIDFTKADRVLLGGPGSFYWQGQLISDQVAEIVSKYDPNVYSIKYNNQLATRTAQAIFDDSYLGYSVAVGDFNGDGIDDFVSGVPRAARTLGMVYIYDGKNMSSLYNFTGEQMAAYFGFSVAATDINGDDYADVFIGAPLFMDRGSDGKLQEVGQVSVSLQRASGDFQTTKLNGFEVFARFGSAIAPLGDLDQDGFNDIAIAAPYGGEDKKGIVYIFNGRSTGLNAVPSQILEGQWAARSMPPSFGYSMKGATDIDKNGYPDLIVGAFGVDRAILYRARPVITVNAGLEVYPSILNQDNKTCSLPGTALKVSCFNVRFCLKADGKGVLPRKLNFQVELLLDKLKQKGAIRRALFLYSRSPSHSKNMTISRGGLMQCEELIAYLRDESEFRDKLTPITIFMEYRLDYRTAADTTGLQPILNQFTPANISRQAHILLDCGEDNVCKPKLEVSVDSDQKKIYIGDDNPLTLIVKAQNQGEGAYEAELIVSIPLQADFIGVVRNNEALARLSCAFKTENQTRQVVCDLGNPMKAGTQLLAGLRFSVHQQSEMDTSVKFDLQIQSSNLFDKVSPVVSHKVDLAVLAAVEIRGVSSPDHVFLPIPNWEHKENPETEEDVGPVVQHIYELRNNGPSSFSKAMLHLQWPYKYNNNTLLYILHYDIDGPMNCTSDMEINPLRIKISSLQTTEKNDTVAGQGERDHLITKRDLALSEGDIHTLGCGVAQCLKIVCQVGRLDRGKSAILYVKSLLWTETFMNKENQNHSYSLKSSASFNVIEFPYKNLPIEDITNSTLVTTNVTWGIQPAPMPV
T1 sequence (P26012 43-684 limits assumed): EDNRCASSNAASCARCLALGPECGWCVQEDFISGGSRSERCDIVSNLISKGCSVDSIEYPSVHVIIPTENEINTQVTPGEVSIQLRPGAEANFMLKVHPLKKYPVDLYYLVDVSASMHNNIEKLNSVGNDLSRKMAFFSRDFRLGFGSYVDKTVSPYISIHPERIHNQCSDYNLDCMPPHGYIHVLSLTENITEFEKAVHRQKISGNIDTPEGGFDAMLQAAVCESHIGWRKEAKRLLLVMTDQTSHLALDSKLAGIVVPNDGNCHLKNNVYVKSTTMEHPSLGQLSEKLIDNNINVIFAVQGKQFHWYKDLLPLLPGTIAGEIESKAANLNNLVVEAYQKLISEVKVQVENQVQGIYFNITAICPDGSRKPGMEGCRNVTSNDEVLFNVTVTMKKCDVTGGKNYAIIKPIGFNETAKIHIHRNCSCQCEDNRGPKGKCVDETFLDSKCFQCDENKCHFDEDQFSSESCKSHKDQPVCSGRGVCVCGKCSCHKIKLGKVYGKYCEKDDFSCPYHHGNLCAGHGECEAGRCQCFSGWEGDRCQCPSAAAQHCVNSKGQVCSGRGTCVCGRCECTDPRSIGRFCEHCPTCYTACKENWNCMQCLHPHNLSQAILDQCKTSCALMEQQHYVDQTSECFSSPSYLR
Method: (§1) Integrin AlphaLISA assay. In the AlphaLISA integrin assays, we used a HEPES based buffer (25 mM HEPES pH 7.4, 137 mM NaCl, 1 mM MgCl2, 1 mM MnCl2, 2 mM CaCl2, 2.7 mM KCl, and 0.05% Tween 20). Optimal assay conditions were determined with a titration of the reagents for signal noise ratio (S/N), linear range, etc. For the respective integrins, we used the final concentrations described in Table 9.
(§2) Briefly, the testing antibody (8 μL) was added as a 4×(of Final testing concentration) solution in the HEPES buffer described previously into a 384w AlphaPlate™ (Perkin Elmer #6005350). Then the integrin and ligand were added sequentially as 8×(4 μL each). Plates were sealed and incubated at room temperature for two hours. Then 4×acceptor bead solution ([…]) was added, and the plates were resealed and incubated at room temperature (RT) for one hour. Finally, 4×([…]) donor beads solution was added in a darkened room and incubated for 45 minutes at room temperature. Plates were read on the Envision (Perkin Elmer) in AlphaScreen™ mode within three hours of donor bead addition.

hαvβ6 = target: T2, hαvβ6 (Homo sapiens, UniProt P06756+P18564); test: as above; type: biochemical
T2 construct: The full extracellular domains for all α and β integrin subunits; (GGGS)3 linker (C); acidic coiled-coil with cysteine (C); GG-Avitag (C); hexa-histidine tag (C); basic coiled-coil with cysteine (C); made in house; host or cells: Expi293 cells
T2 sequence (P06756 31-992 limits assumed): as the sequence (P06756 31-992 limits assumed) above
T2 sequence (P18564 22-709 limits assumed): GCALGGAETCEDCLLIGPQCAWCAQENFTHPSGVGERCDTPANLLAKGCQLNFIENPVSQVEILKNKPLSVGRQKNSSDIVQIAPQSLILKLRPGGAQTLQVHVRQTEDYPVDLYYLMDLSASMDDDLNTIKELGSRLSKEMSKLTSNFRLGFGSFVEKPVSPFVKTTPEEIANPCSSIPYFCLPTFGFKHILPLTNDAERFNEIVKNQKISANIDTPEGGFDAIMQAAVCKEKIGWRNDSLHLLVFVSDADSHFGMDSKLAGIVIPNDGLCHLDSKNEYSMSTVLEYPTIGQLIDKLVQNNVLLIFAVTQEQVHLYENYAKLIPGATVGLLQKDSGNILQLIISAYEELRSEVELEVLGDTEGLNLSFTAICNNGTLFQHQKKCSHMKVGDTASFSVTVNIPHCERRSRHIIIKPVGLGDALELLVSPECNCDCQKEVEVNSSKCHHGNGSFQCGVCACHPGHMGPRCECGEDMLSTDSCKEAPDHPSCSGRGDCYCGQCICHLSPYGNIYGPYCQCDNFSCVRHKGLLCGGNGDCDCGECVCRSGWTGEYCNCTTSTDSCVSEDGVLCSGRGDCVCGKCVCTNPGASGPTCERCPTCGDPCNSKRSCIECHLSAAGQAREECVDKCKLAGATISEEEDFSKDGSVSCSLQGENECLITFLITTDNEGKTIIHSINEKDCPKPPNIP
Method: as §1, §2

[1] = tested on: Normal human lung fibroblasts; test: αSMA imaging, TGFβ-induced αSMA expression; type: cell-based; conditions: TGFβ 5 ng/mL, pre-treated 30 minutes, MK-0429 (10 µM) or SB-525334 (10 μM), 48 hours
Method: (§3) αSMA imaging. Primary cells (passage 3-5) were grown on Cell carrier Ultra, collagen Type 1 coated 96-well plates (Perkin Elmer, #6055700) at a density of 25,000 cells/well. Once the cells adhere, they were starved in serum free media for 24 hours followed by addition of treatments, i.e., 5 ng/mL TGFβ (Biolegend #580702)±inhibitors. Cells were pre-treated with inhibitors for 30 minutes prior to the addition of TGFβ stimulation. 48 hours post treatment, the cells were fixed in 4% methanol free paraformaldehyde (ThermoFisher Scientific #28908) for 20 minutes at room temperature and incubated with anti-alpha smooth muscle Actin antibody (Abcam #ab7817) at 1:4000 overnight at 4° C. Following primary antibody incubation, cells were incubated with Goat anti-mouse secondary antibody (ThermoFisher Scientific #A32723) at 1:500 and Hoechst (ThermoFisher Scientific #62249) at 1:1000 for one hour at RT. The fixed and stained cells were images for immunofluorescence on Perkin Elmer's Opera Phenix high content Imager.

[2] = osteoporosis patients, 52 weeks; cited from earlier work
[3] = tested on: IPF patient lung fibroblasts; test: αSMA imaging, TGFβ-induced αSMA expression; type: cell-based, human; set-up: inhibiting αSMA induction: dose or concentration left out as unconfirmed
Method: as §3

CHOK1 parental cells = test: Cell adhesion assay, CHOK1 parental cells on fibronectin; type: cell-based, hamster; conditions: FIG. 11
mα5β1 = target: T3, mα5β1 (Mus musculus, UniProt P09055+P11688); test: Mouse AlphaLISA integrin-ligand blocking assay (fibronectin); type: biochemical; conditions: Table 12; read-out: IC50 Mouse integrin AlphaLISA assays mα5β1
T3 construct: The full extracellular domains for all α and β integrin subunits; (GGGS)3 linker (C); acidic coiled-coil with cysteine (C); GG-Avitag (C); hexa-histidine tag (C); basic coiled-coil with cysteine (C); made in house; host or cells: Expi293 cells
T3 sequence (P11688 45-999 limits assumed): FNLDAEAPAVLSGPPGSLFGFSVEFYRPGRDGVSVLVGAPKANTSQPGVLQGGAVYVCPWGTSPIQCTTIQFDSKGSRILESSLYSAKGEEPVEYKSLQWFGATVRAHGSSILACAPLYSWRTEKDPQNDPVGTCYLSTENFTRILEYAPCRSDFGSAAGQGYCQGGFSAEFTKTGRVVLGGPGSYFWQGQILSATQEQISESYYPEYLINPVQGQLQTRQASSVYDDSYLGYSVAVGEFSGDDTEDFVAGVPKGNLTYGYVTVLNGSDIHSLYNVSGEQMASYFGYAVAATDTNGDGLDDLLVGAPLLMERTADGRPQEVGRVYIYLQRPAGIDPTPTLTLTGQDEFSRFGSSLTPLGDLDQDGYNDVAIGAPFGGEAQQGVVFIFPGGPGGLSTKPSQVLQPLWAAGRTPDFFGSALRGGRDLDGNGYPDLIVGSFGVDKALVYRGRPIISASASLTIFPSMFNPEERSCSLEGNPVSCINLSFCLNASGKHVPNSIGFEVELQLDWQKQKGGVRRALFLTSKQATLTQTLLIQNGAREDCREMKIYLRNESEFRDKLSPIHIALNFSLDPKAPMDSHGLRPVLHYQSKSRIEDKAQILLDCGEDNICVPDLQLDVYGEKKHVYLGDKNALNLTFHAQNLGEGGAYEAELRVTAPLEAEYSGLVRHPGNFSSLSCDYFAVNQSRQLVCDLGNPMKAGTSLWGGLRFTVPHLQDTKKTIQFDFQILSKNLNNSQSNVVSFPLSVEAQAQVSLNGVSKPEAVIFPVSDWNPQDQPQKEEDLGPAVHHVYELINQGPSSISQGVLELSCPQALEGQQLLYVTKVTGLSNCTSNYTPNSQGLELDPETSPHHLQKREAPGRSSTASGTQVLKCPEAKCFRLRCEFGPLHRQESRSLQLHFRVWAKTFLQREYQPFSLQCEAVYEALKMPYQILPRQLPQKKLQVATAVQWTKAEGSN
T3 sequence (P09055 21-728 limits assumed): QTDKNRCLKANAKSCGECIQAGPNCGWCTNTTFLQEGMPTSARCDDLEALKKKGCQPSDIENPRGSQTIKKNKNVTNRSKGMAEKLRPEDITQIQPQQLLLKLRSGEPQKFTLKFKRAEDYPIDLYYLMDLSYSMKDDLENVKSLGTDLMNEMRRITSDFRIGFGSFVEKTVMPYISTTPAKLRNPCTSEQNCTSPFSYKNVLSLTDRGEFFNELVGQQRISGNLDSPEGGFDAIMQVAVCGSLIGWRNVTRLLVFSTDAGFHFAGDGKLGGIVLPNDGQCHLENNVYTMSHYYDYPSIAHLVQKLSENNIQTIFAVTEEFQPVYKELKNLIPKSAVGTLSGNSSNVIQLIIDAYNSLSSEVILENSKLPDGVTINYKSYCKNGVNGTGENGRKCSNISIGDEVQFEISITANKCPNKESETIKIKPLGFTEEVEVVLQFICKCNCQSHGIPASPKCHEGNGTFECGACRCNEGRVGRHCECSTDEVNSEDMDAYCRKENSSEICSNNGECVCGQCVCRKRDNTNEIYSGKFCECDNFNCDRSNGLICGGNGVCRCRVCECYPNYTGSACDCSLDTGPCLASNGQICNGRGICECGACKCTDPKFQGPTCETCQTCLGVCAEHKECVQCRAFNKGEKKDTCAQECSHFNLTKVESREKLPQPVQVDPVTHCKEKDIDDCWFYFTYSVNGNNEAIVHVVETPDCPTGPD
Method: as §1, §2

mαvβ1 = target: T4, mαvβ1 (Mus musculus, UniProt P09055+P43406); test: as above; type: biochemical; conditions: Table 12; read-out: IC50 Mouse integrin AlphaLISA assays mαvβ1
T4 construct: The full extracellular domains for all α and β integrin subunits; (GGGS)3 linker (C); acidic coiled-coil with cysteine (C); GG-Avitag (C); hexa-histidine tag (C); basic coiled-coil with cysteine (C); made in house; host or cells: Expi293 cells
T4 sequence (P43406 31-988 limits assumed): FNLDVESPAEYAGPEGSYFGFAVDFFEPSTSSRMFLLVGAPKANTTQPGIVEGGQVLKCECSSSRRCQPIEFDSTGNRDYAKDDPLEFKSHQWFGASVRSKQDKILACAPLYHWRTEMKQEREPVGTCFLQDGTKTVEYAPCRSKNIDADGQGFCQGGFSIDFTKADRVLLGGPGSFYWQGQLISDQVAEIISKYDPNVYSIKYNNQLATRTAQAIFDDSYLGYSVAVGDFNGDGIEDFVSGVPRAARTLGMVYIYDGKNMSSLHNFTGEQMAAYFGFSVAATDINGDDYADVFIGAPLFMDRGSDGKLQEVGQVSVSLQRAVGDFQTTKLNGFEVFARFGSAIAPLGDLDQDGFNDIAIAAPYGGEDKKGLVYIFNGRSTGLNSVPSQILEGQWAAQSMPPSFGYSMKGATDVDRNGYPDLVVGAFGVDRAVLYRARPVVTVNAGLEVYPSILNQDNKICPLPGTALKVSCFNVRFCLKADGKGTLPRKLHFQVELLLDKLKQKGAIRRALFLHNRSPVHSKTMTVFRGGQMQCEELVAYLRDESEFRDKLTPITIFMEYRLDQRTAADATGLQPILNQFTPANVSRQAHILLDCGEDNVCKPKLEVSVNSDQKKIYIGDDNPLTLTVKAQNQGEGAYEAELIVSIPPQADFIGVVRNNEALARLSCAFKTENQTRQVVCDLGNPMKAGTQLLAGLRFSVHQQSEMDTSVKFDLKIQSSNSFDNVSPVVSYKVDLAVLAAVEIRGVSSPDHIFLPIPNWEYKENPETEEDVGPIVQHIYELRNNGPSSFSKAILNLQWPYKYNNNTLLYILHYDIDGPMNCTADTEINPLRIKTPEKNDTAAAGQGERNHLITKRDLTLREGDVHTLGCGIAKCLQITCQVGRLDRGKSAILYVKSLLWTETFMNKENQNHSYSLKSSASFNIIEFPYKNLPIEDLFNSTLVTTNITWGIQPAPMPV
T4 sequence (P09055 21-728 limits assumed): as the sequence (P09055 21-728 limits assumed) above
Method: as §1, §2

human αvβ6 = target: T5, human αvβ6 (Homo sapiens, UniProt P06756+P18564); test: Latent TGFβ activation assay, TMLC / CHOK1-integrin co-culture (PAI-1 luciferase); type: cell-based; conditions: FIG. 5B
T5 construct: expressed in transfected cells
Method: (§4) Latent TGFβ activation assay. Transfected mink lung epithelial cell (TMLC) cell line containing the TGFβ responsive PAI-1 promoter driving luciferase expression (Mazzieri et al, Methods Mol. Biol. 142, 13-27 (2000)) and the CHO-K1 human and mouse αvβ×integrin cell lines were grown under optimized growth conditions to 90% confluency. TMLC cells were trypsinized and plated at 25,000 cells/well in 50 μL in Costar clear bottom white walled plates. In a separate plate, 25 μL of serially diluted antibodies at 4×concentration were added to wells containing 25 μL of either 25,000 cells of human or mouse αvβ×cells. After a brief mixing, the 50 μL mixture was transferred to the TMLC cell plates for a total volume of 100 μL and incubated at 37° C. for 16 hours. 100 μL of ONE-Glo kit (#PRE6120) was added to each well and read after three to five minutes on the Envision plate reader.

mouse αvβ1 = target: T6, mouse αvβ1 (Mus musculus, UniProt P09055+P43406); test: as above; type: cell-based; conditions: FIG. 5B
T6 construct: expressed in transfected cells
Method: as §4

human αvβ8 = target: T7, human αvβ8 (Homo sapiens, UniProt P06756+P26012); test: as above; type: cell-based; conditions: FIG. 5B
T7 construct: expressed in transfected cells
Method: as §4

mouse αvβ6 = target: T8, mouse αvβ6 (Mus musculus, UniProt P43406+Q9Z0T9); test: as above; type: cell-based; conditions: FIG. 5B
T8 construct: expressed in transfected cells
Method: as §4

human αvβ1 = target: T9, human αvβ1 (Homo sapiens, UniProt P05556+P06756); test: as above; type: cell-based; conditions: FIG. 5B
T9 construct: expressed in transfected cells
Method: as §4

Structure (SMILES): COc1ccc([C@H](CC(=O)O)N2CCN(CCCc3ccc4c(n3)NCCC4)C2=O)cn1 [MK-0429, (3S)-3-(6-methoxypyridin-3-yl)-3-[2-oxo-3-[3-(5,6,7,8-tetrahydro-1,8-naphthyridin-2-yl)propyl]imidazolidin-1-yl]propanoic acid]
- pIC50 (hαvβ8; FIG. 3D, curve-fitted, read-out: IC50 against human αvβ1 (as printed, fifth integrin listed), AlphaLISA): 7.23
- pIC50 (hαvβ8; Table 11, read-out: IC50 Human integrin AlphaLISA assays hαvβ8): 8.51
- pIC50 (hαvβ6; FIG. 3D, curve-fitted, read-out: IC50 against human αvβ6, AlphaLISA): 8.42
- pIC50 (hαvβ6; Table 11, read-out: IC50 Human integrin AlphaLISA assays hαvβ6): 9.30
- αSMA intensity and the percentage of stimulated cells following TGFβ treatment [1]: significantly reduced
- safety profile [2]: relatively well-tolerated safety profile
- inhibiting αSMA induction [3]: minimal activity
- inhibition of adhesion of CHOK1 parental cells on fibronectin (CHOK1 parental cells): little inhibitory activity
- pIC50 (mα5β1): 7.30
- pIC50 (mαvβ1): 8.89
- inhibition of latent TGFβ activation, human αvβ6 co-culture (human αvβ6): strong inhibitory effect
- inhibition of latent TGFβ activation, mouse αvβ1 co-culture (mouse αvβ1): strong inhibitory effect
- inhibition of latent TGFβ activation, human αvβ8 co-culture (human αvβ8): strong inhibitory effect
- inhibition of latent TGFβ activation, mouse αvβ6 co-culture (mouse αvβ6): strong inhibitory effect
- inhibition of latent TGFβ activation, human αvβ1 co-culture (human αvβ1): strong inhibitory effect
